Key:
[1] = test system: Adult human dermal fibroblasts (HDF); assay: In-vitro effect on synthesis of type I procollagen (PIP ELISA); assay type: cell-based; conditions: for Δ % vs. control (PIP) / PIP concentration: 48 h; for PIP concentration: supernatant; for Procollagen I Synthesis (Δ% vs. control): Table 2 summary; for effect on synthesis of type I procollagen (in words): same test and conditions as Example 4
Method: Adult human dermal fibroblasts (HDF) were appropriately grown, and were employed between 2nd and 4th passage. […] After the incubation the supernatant were collected and dosed for the terminal peptide of type I procollagen (PIP) with ELISA kit. The measurement of PIP concentration in the culture medium is representative for the production of collagen type I. The results of type I procollagen concentration (PIP) are reported in the Table 6 below: […]

[2] = test system: Adult human dermal fibroblasts (HDF); assay: In-vitro effect on extra-cellular protein synthesis (Bradford); assay type: cell-based; conditions: for Δ % vs. control (protein concentration) / Protein concentration Treated: 72 h; for Protein concentration Treated: supernatant; for Protein synthesis (Δ% vs. control): Table 2 summary; for effect on extracellular protein synthesis (in words): same test and conditions as Example 3
Method: Adult human dermal fibroblasts (HDF) were appropriately grown, and were employed between 2nd and 6th passage. The fibroblasts, plated in a 24-wells plate at the density of 12×10^4 cells/mL (1 mL/well), were incubated for 72 hours with rhEGF (100 nM) as positive control, or with cortexolone 17α-propionate at concentration of 5 μM, 25 μM, 50 μM. After 72 h of incubation the supernatant were mixed with 1 mL of Bradford reagent and incubated for 45 minutes at room temperature. Each sample was then read in a spectrophotometer at 595 nm.

[3] = test system: Adult human dermal fibroblasts (HDF); assay: In-vitro fibroblast migration (image density); assay type: cell-based; conditions: for Image density 6 h: 6 h after insert removal; for Image density 24 h: 24 h after insert removal; for Image density t0: immediately after insert removal; for Δ (%) vs. vehicle (migration): increase t0-24 h
Method: Fibroblast migration: Adult human dermal fibroblasts (HDF) were appropriately grown, and were employed between 2nd and 6th passage. […] After incubation the culture-insert was removed and the cells were maintained in culture for further 24 hours. Immediately after insert removal, and at interval of 6 and 24 h, the plates were photographed by Digital Microscope Eyepiece. The entity of cell migration was measured using image analyzing software Image J, and was expressed as image density.

[4] = test system: Adult human dermal fibroblasts (HDF); assay: In-vitro fibroblast proliferation (BrdU incorporation); assay type: cell-based; conditions: for Δ % vs. control (proliferation) / Absorbance ± SD Treated: 72 h; for Absorbance ± SD Treated: BrdU, 450 nm; for Fibroblast proliferation (Δ% vs. control): Table 2 summary; for proliferative stimulating effect (in words): same test and conditions as Example 1
Method: Fibroblast proliferation: Adult human dermal fibroblasts (HDF) were appropriately grown, and were employed between 2nd and 6th passage. […] Twenty-four hours before end of incubation, the cells were labelled with Bromo deoxyuridine (BrdU, 10 μL/well) and its incorporation into DNA was evaluated measuring the absorbance of the samples in an ELISA reader at 450 nm. The proliferation rate of the fibroblasts was evaluated on the increase of the absorbance of the samples.

cutaneous wounds = assay: In vivo wound healing activity, repTOP mitoIRE mouse model; conditions: 250 mg/mouse topical
Method: The wound healing activity of the cortexolone 17α-propionate on cutaneous wounds was evaluated in an in vivo test foreseeing the use of repTOP™ mitoIRE mouse model. RepTOP™ mitoIRE mice from TOP® S.r.l. are engineered for the ubiquitous and proliferation-regulated expression of luciferase in proliferating tissues by embedding the transgene containing the minimal promoter of Cyclin B2d driving the firefly luciferase gene within HS4 insulator sequences.
Cortexolone 17α-propionate was dissolved in 0.4% (v/v) tween 80 and 0.5% (w/v) carboxymethylcellulose in normal saline.
The test was carried out comparing the wound healing activity of cortexolone 17α-propionate at two different dosages (50 mg/mouse and 250 mg/mouse) versus the vehicle (i.e. 0.4% (v/v) tween 80 and 0.5% (w/v) carboxymethylcellulose in normal saline) and versus a comparator, i.e. Cicatrene® cream (Johnson&Johnson®), a drug product used in wound management and wound healing.
Animal treatments. The repTOP™ mitoIRE mice were shaved by VEET® depilatory cream a day before the treatment. A round full-thickness wound of 0.4 cm^2 area was made through the dorsal skin and the panniculus carnosus muscle of repTOP™ mitoIRE by using skin biopsy devices (HS biopsy punch).
In vivo test. In order to establish the proliferative stimulating activity of cortexolone 17α-propionate, the vehicle (200 μl/mouse), cortexolone 17α-propionate (50 mg/mouse), cortexolone 17α-propionate (250 mg/mouse) and Cicatrene® (200 mg/mouse) were spread topically on the wound of repTOP™ mitoIRE mice (4 mice per group of treatment), immediately after the generation of the round punch. Photon-emission was measured in wound area at the following times: time 0 and 1, 2, 3 and 6 days after the treatment. A representation of the area of wound selected for the measurements is depicted in FIG. 1.
In vivo imaging. […] Photon emission in wound area was measured using the Living Image Software (Caliper™, a Perkin Elmer™ company) and expressed as photon/second/cm^2/steradian (p/s/cm^2/sr). The measurement of wound areas was expressed as cm^2.

[5] = test system: testosterone propionate (TP) response; assay: Local antiandrogenic activity, flank organ test in hamster; assay type: in vivo; conditions: for Percent inhibition of testosterone propionate (TP) response: topical on flank organ; for Mean inhibition (%): mean over daily doses 100, 200, 400 μg + 4 μg TP
Text: The numbers indicate the percent inhibition of the stimulating response induced by the application of testosterone propionate (TP): the higher the number, the higher the inhibition of the androgenic response to testosterone propionate (TP).

[6] = daily dose 100 μg test compound + 4 μg TP
[7] = daily dose 200 μg test compound + 4 μg TP
[8] = daily dose 400 μg test compound + 4 μg TP

O=C1O[C@H]([C@@H](O)CO)C(O)=C1O [Vit. C, L-Ascorbic acid]
Δ % vs. control (PIP) ([1]; 0.2 mM): 260.87% | PIP concentration ([1]; 0.2 mM): 3735.27 ± 515.52 ng/mL

CCC(=O)O[C@]1(C(=O)CO)CC[C@H]2[C@@H]3CCC4=CC(=O)CC[C@]4(C)[C@H]3CC[C@@]21C [Cortexolone 17α-propionate, cortexolone 17α-propionate]
Δ % vs. control (protein concentration) ([2]; 5 μM): 0% | Protein concentration Treated ([2]; 5 μM): 0.5 ± 0.056 mg/mL | Δ % vs. control (protein concentration) ([2]; 25 μM): 12.18% | Protein concentration Treated ([2]; 25 μM): 0.884 ± 0.028 mg/mL | Δ % vs. control (protein concentration) ([2]; 50 μM): 27.41% | Protein concentration Treated ([2]; 50 μM): 0.846 ± 0.087 mg/mL | Protein synthesis (Δ% vs. control) ([2]; 50 μM): 27.4% | Increase from t0 − 24 h (image density) ([3]; 10 μM): 35.2 | Image density 6 h ([3]; 10 μM): 24.0 ± 2.4 | Image density 24 h ([3]; 10 μM): 54.5 ± 2.5 | Image density t0 ([3]; 10 μM): 19.3 ± 0.8 | Δ (%) vs. vehicle (migration) ([3]; 10 μM): 30.3% | Increase from t0 − 24 h (image density) ([3]; 50 μM): 44.0 | Image density 6 h ([3]; 50 μM): 25.1 ± 1.2 | Image density 24 h ([3]; 50 μM): 64.1 ± 5.6 | Image density t0 ([3]; 50 μM): 20.1 ± 2.0 | Δ (%) vs. vehicle (migration) ([3]; 50 μM): 62.9% | Δ % vs. control (proliferation) ([4]; 1 μM): −0.95% | Absorbance ± SD Treated ([4]; 1 μM): 2.06 ± 0.15 | Δ % vs. control (proliferation) ([4]; 5 μM): 6.71% | Absorbance ± SD Treated ([4]; 5 μM): 2.05 ± 0.24 | Δ % vs. control (proliferation) ([4]; 25 μM): 7.00% | Absorbance ± SD Treated ([4]; 25 μM): 2.09 ± 0.19 | Δ % vs. control (proliferation) ([4]; 50 μM): 30.98% | Absorbance ± SD Treated ([4]; 50 μM): 2.48 ± 0.23 | Fibroblast proliferation (Δ% vs. control) ([4]; 50 μM): 31.0% | Δ % vs. control (PIP) ([1]; 10 μM): −8.27% | PIP concentration ([1]; 10 μM): 949.50 ± 149.81 ng/mL | Δ % vs. control (PIP) ([1]; 50 μM): 199.59% | PIP concentration ([1]; 50 μM): 3100.98 ± 152.59 ng/mL | Procollagen I Synthesis (Δ% vs. control) ([1]; 50 μM): 199.6% | time of maximum increase of proliferative cells after administration (cutaneous wounds): 3 days | mean reduction in wound area (cutaneous wounds; after 3 days from administration): 26% | increase of photon-emission from wounds with respect to time 0 (cutaneous wounds; time 3 days): 143% | Percent inhibition of testosterone propionate (TP) response [5, 6]: 62% | Percent inhibition of testosterone propionate (TP) response [5, 7]: 69% | Percent inhibition of testosterone propionate (TP) response [5, 8]: 86% | Mean inhibition (%) [5]: 72%

CCCC(=O)OCC(=O)[C@@]1(OC(=O)CCC)CC[C@H]2[C@@H]3CCC4=CC(=O)CC[C@]4(C)[C@H]3CC[C@@]21C [Cortexolone 17α,21-dibutyrate, cortexolone 17α,21-dibutyrate]
Protein synthesis (Δ% vs. control) ([2]; 50 μM): 0.6% | effect on extracellular protein synthesis (in words) [2]: did not show any effect in increasing the extracellular protein synthesis | Fibroblast proliferation (Δ% vs. control) ([4]; 50 μM): 9.6% | proliferative stimulating effect (in words) [4]: did not show any proliferative stimulating effect | Procollagen I Synthesis (Δ% vs. control) ([1]; 50 μM): −2.8% | effect on synthesis of type I procollagen (in words) [1]: did not show any effect in increasing the synthesis of type I procollagen | Percent inhibition of testosterone propionate (TP) response [5, 6]: 84% | Percent inhibition of testosterone propionate (TP) response [5, 7]: 89% | Percent inhibition of testosterone propionate (TP) response [5, 8]: 97% | Mean inhibition (%) [5]: 90%

CCCCC(=O)O[C@]1(C(=O)CO)CC[C@H]2[C@@H]3CCC4=CC(=O)CC[C@]4(C)[C@H]3CC[C@@]21C [Cortexolone 17α-valerate, cortexolone 17α-valerate]
Protein synthesis (Δ% vs. control) ([2]; 50 μM): −3.8% | effect on extracellular protein synthesis (in words) [2]: did not show any effect in increasing the extracellular protein synthesis | Fibroblast proliferation (Δ% vs. control) ([4]; 50 μM): −33.8% | proliferative stimulating effect (in words) [4]: did not show any proliferative stimulating effect | Procollagen I Synthesis (Δ% vs. control) ([1]; 50 μM): −14.6% | effect on synthesis of type I procollagen (in words) [1]: did not show any effect in increasing the synthesis of type I procollagen | Percent inhibition of testosterone propionate (TP) response [5, 6]: 66% | Percent inhibition of testosterone propionate (TP) response [5, 7]: 65% | Percent inhibition of testosterone propionate (TP) response [5, 8]: 73% | Mean inhibition (%) [5]: 68%

rhEGF: recombinant human Epidermal Growth Factor, known fibroblast proliferation promoter, positive control
Δ % vs. control (protein concentration) ([2]; 100 nM): 49.54% | Protein concentration Treated ([2]; 100 nM): 0.978 ± 0.074 mg/mL | Increase from t0 − 24 h (image density) ([3]; 100 nM): 43.6 | Image density 6 h ([3]; 100 nM): 21.6 ± 1.0 | Image density 24 h ([3]; 100 nM): 65.7 ± 4.2 | Image density t0 ([3]; 100 nM): 22.1 ± 2.9 | Δ (%) vs. vehicle (migration) ([3]; 100 nM): 61.5% | Δ % vs. control (proliferation) ([4]; 100 nM): 49.49% | Absorbance ± SD Treated ([4]; 100 nM): 2.72 ± 0.22

C[C@]12CCC(=O)C=C1CC[C@@H]1[C@@H]2[C@@H](O)C[C@@]2(C)[C@H]1CC[C@]2(O)C(=O)CO [Cortisol, cortisol, reference compound]
Increase from t0 − 24 h (image density) ([3]; 50 μM): 34.4 | Image density 6 h ([3]; 50 μM): 22.9 ± 2.7 | Image density 24 h ([3]; 50 μM): 56.6 ± 4.4 | Image density t0 ([3]; 50 μM): 22.2 ± 3.2 | Δ (%) vs. vehicle (migration) ([3]; 50 μM): 27.4% | Δ % vs. control (proliferation) ([4]; 50 μM): −56.84% | Δ % vs. control (PIP) ([1]; 50 μM): −74.94% | PIP concentration ([1]; 50 μM): 259.36 ng/mL
